The text below walks through data of patent US12577234B2, “Antagonists of the muscarinic acetylcholine receptor M4” (Vanderbilt University, priority 2017, dated 2026).

This assay concerns the target T1, human mAChR M4 (Homo sapiens, UniProt P08173).
T1 construct: expressed in transfected cells; host or cells: CHO-K1 (ATCC), stably co-expressing chimeric G protein Gqi5
T1 sequence (P08173 1-479): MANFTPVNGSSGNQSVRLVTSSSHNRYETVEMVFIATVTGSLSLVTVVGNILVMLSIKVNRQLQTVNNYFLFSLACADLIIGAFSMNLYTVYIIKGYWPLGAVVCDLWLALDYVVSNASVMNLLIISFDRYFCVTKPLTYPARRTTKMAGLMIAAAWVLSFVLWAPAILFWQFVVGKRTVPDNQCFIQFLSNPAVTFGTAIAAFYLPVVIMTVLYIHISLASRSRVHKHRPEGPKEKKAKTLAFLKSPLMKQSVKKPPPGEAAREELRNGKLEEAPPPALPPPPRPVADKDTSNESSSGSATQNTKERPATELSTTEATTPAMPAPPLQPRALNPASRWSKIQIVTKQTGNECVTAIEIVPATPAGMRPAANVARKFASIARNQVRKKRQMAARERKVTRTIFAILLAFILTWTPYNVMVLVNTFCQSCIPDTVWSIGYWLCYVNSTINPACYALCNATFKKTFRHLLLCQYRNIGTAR
As to the kind of experiment: mAChR M4 cell-based functional assay (calcium mobilization, EC80 acetylcholine), human M4. Conditions: for IC50: M4/Gqi5/CHO-K1 cells, decrease of EC80 acetylcholine response; for Emin: human M4, % ACh maximum at 30 μM. Put shortly:
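CHO-K1 cells stably expressing human M4 with chimeric Gqi5; intracellular calcium rise read on FDSS as fluorescence static ratio at 1 Hz. Compounds in 10-point 1:3 dilution series; IC50 taken as concentration-dependent decrease of the EC80 acetylcholine response, four-parameter logistic fit.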

As to `Cc1nn(C)cc1-c1ccc(N[C@H]2C[C@@H]3CN(CC45CC6CC(CC(C6)C4)C5)C[C@@H]3C2)nc1` [Compound 150, (3aR,5s,6aS)-2-(1-adamantylmethyl)-N-[5-(1,3-dimethylpyrazol-4-yl)-2-pyridyl]-3,3a,4,5,6,6a-hexahydro-1H-cyclopenta[c]pyrrol-5-amine], under “Table 10”, the “Human M4 Emin” value is 3% and the IC50 was determined as 0.161 µM.

For the molecule `Cc1cnn(C)c1-c1ccc(N[C@H]2C[C@@H]3CN(CC4CCCCO4)C[C@@H]3C2)nn1` (stereo partly drawn) [Compound 38, (3aR,5s,6aS)-N-[6-(2,4-dimethylpyrazol-3-yl)pyridazin-3-yl]-2-(tetrahydropyran-2-ylmethyl)-3,3a,4,5,6,6a-hexahydro-1H-cyclopenta[c]pyrrol-5-amine], under “Table 9”, the IC50 is 0.0318 µM and the Emin was determined as 5.45%.

As to `c1coc(-c2ccc(N[C@H]3C[C@@H]4CN(CC5CCOCC5)C[C@@H]4C3)nn2)c1` [Compound 188, (3aR,5s,6aS)-N-[6-(2-furyl)pyridazin-3-yl]-2-(tetrahydropyran-4-ylmethyl)-3,3a,4,5,6,6a-hexahydro-1H-cyclopenta[c]pyrrol-5-amine], under “Table 10”, the “Human M4 Emin” value worked out at 14% and the IC50 came to 0.00794 µM.

For the molecule `FC1(F)CCN(c2ccc(N[C@H]3C[C@@H]4CN(CC5CCOCC5)C[C@@H]4C3)nn2)C1` [Compound 189, (3aR,5s,6aS)-N-[6-(3,3-difluoropyrrolidin-1-yl)pyridazin-3-yl]-2-(tetrahydropyran-4-ylmethyl)-3,3a,4,5,6,6a-hexahydro-1H-cyclopenta[c]pyrrol-5-amine], where the note is “Table 10”, the “Human M4 Emin” value was found to be 8% and the IC50 was determined as 0.00207 µM.

For the molecule `CCC(C)CN1C[C@H]2C[C@H](Nc3ccc(-c4cc(F)ccc4Cl)nn3)C[C@H]2C1` (stereo partly drawn) [Compound 29, (3aR,5s,6aS)-N-[6-(2-chloro-5-fluoro-phenyl)pyridazin-3-yl]-2-(2-methylbutyl)-3,3a,4,5,6,6a-hexahydro-1H-cyclopenta[c]pyrrol-5-amine], where the note is “Table 9”, the concentration for half-maximal inhibition (IC50) was 0.0026 µM and the Emin amounted to 7.8%.

`Fc1ccc(Cl)c(-c2ccc(O[C@@H]3C[C@@H]4CN(CC5CCCOC5)C[C@@H]4C3)nn2)c1` (stereo partly drawn) [Compound 57, (3aR,5r,6aS)-5-[6-(2-chloro-5-fluoro-phenyl)pyridazin-3-yl]oxy-2-(tetrahydropyran-3-ylmethyl)-3,3a,4,5,6,6a-hexahydro-1H-cyclopenta[c]pyrrole]: where the note is “Table 9”, the IC50 was determined as 3.07 µM and the Emin was determined as 6.99%.

As for `CC(C)(C)CCN1C[C@H]2C[C@@H](Oc3ccc(-c4cc(F)ccc4Cl)nn3)C[C@H]2C1` [Compound 54, (3aR,5r,6aS)-5-[6-(2-chloro-5-fluoro-phenyl)pyridazin-3-yl]oxy-2-(3,3-dimethylbutyl)-3,3a,4,5,6,6a-hexahydro-1H-cyclopenta[c]pyrrole], where the note is “Table 9”, the IC50 amounted to 0.222 µM and the Emin is reported as 3.07%.

As to `FC(F)(F)Oc1ccc(-c2ccc(N[C@H]3C[C@@H]4CN(CC5CCOCC5)C[C@@H]4C3)nn2)cc1` [Compound 184, (3aR,5s,6aS)-2-(tetrahydropyran-4-ylmethyl)-N-[6-[4-(trifluoromethoxy)phenyl]pyridazin-3-yl]-3,3a,4,5,6,6a-hexahydro-1H-cyclopenta[c]pyrrol-5-amine], for the setting “Table 10”, the “Human M4 Emin” value is reported as 5% and the IC50 is 0.0567 µM.

As to `O=C(Nc1ccc(-c2ccc(F)cc2Cl)nn1)C1C[C@@H]2CN(CC3CC4C=CC3C4)C[C@@H]2C1` (stereo partly drawn) [Compound 75, (3aR,6aS)-2-(5-bicyclo[2.2.1]hept-2-enylmethyl)-N-[6-(2-chloro-4-fluoro-phenyl)pyridazin-3-yl]-3,3a,4,5,6,6a-hexahydro-1H-cyclopenta[c]pyrrole-5-carboxamide], for the setting “Table 9”, the IC50 was 2.78 µM and the Emin was 3.25%.

Consider `Cc1cnn(C)c1-c1ccc(NC(=O)[C@@H]2C[C@@H]3CN(CCC(C)(C)C)C[C@@H]3C2)nn1` [Compound 144, (3aR,5r,6aS)-2-(3,3-dimethylbutyl)-N-[6-(2,4-dimethylpyrazol-3-yl)pyridazin-3-yl]-3,3a,4,5,6,6a-hexahydro-1H-cyclopenta[c]pyrrole-5-carboxamide], for which, for the setting “Table 10”, the “Human M4 Emin” value worked out at 5% and the IC50 amounted to 0.405 µM.

As for `Fc1ccc(Cl)c(-c2ccc(N[C@H]3C[C@@H]4CN(Cc5ccncc5)C[C@@H]4C3)nn2)c1` [Compound 162, (3aR,5s,6aS)-N-[6-(2-chloro-5-fluoro-phenyl)pyridazin-3-yl]-2-(4-pyridylmethyl)-3,3a,4,5,6,6a-hexahydro-1H-cyclopenta[c]pyrrol-5-amine], for the setting “Table 10”, the “Human M4 Emin” value was found to be 3% and the IC50 stood at 0.00452 µM.

Consider `Cc1cnn(C)c1-c1ccc(N[C@H]2C[C@@H]3CN(Cc4ccccc4)C[C@@H]3C2)nn1` [Compound 23, (3aR,5s,6aS)-2-benzyl-N-[6-(2,4-dimethylpyrazol-3-yl)pyridazin-3-yl]-3,3a,4,5,6,6a-hexahydro-1H-cyclopenta[c]pyrrol-5-amine], for which, where the note is “Table 9”, the IC50 came out at 0.118 µM and the Emin was found to be 3.85%.

As to `CCCC(C)CN1C[C@H]2CC(COc3ccc(-c4cc(F)ccc4Cl)nn3)C[C@H]2C1` (stereo partly drawn) [Compound 110, (3aR,6aS)-5-[[6-(2-chloro-5-fluoro-phenyl)pyridazin-3-yl]oxymethyl]-2-(2-methylpentyl)-3,3a,4,5,6,6a-hexahydro-1H-cyclopenta[c]pyrrole], where the note is “Table 9”, the IC50 was 0.773 µM and the Emin came out at 4.60%.

`Cc1cnn(C)c1-c1ccc(NC(=O)[C@H]2C[C@@H]3CN(CCC(C)(C)C)C[C@@H]3C2)nn1` [Compound 145, (3aR,5s,6aS)-2-(3,3-dimethylbutyl)-N-[6-(2,4-dimethylpyrazol-3-yl)pyridazin-3-yl]-3,3a,4,5,6,6a-hexahydro-1H-cyclopenta[c]pyrrole-5-carboxamide]: under “Table 10”, the “Human M4 Emin” value amounted to 4% and the IC50 was 0.239 µM.

Take `Cc1nn(C)cc1-c1ccc(OCC2C[C@@H]3CN(CC4CCOCC4)C[C@@H]3C2)nn1` (stereo partly drawn) [Compound 98, (3aR,6aS)-5-[[6-(1,3-dimethylpyrazol-4-yl)pyridazin-3-yl]oxymethyl]-2-(tetrahydropyran-4-ylmethyl)-3,3a,4,5,6,6a-hexahydro-1H-cyclopenta[c]pyrrole]: for the setting “Table 9”, the IC50 came out at 2.23 µM and the Emin stood at 8.70%.

On to `Cc1cnn(C)c1-c1ccc(NCCC2C[C@@H]3CN(CC45CC6CC(CC(C6)C4)C5)C[C@@H]3C2)nn1` (stereo partly drawn) [Compound 121, N-[2-[(3aR,6aS)-2-(1-adamantylmethyl)-3,3a,4,5,6,6a-hexahydro-1H-cyclopenta[c]pyrrol-5-yl]ethyl]-6-(2,4-dimethylpyrazol-3-yl)pyridazin-3-amine], for which, where the note is “Table 9”, the IC50 was 0.047 µM and the Emin is 3.59%.

For `FC1(F)CCCN(c2ccc(N[C@H]3C[C@@H]4CN(CC5CCOCC5)C[C@@H]4C3)nn2)C1` [Compound 196, (3aR,5s,6aS)-N-[6-(3,3-difluoro-1-piperidyl)pyridazin-3-yl]-2-(tetrahydropyran-4-ylmethyl)-3,3a,4,5,6,6a-hexahydro-1H-cyclopenta[c]pyrrol-5-amine], where the note is “Table 10”, the “Human M4 Emin” value is listed as 4% and the IC50 worked out at 0.00209 µM.

As for `Cc1nn(C)cc1-c1ccc(N[C@H]2C[C@@H]3CN(CC4CCCOC4)C[C@@H]3C2)nn1` (stereo partly drawn) [Compound 6, (3aR,5s,6aS)-N-[6-(1,3-dimethylpyrazol-4-yl)pyridazin-3-yl]-2-(tetrahydropyran-3-ylmethyl)-3,3a,4,5,6,6a-hexahydro-1H-cyclopenta[c]pyrrol-5-amine], under “Table 9”, the IC50 was 0.0114 µM and the Emin is 3.33%.

With `c1nn(C2CC2)cc1-c1ccc(N[C@H]2C[C@@H]3CN(CC4CCOCC4)C[C@@H]3C2)nn1` [Compound 209, (3aR,5s,6aS)-N-[6-(1-cyclopropylpyrazol-4-yl)pyridazin-3-yl]-2-(tetrahydropyran-4-ylmethyl)-3,3a,4,5,6,6a-hexahydro-1H-cyclopenta[c]pyrrol-5-amine], for the setting “Table 10”, the “Human M4 Emin” value came to 13% and the IC50 came out at 0.00441 µM.

Regarding `Fc1ccccc1-c1ccc(N[C@H]2C[C@@H]3CN(CC4CCOCC4)C[C@@H]3C2)nn1` [Compound 185, (3aR,5s,6aS)-N-[6-(2-fluorophenyl)pyridazin-3-yl]-2-(tetrahydropyran-4-ylmethyl)-3,3a,4,5,6,6a-hexahydro-1H-cyclopenta[c]pyrrol-5-amine], for the setting “Table 10”, the “Human M4 Emin” value was 4% and the IC50 came to 0.000667 µM.

With `Cc1nn(C)cc1-c1ccc(OCC2C[C@@H]3CN(Cc4ccccc4)C[C@@H]3C2)nn1` (stereo partly drawn) [Compound 100, (3aR,6aS)-2-benzyl-5-[[6-(1,3-dimethylpyrazol-4-yl)pyridazin-3-yl]oxymethyl]-3,3a,4,5,6,6a-hexahydro-1H-cyclopenta[c]pyrrole], for the setting “Table 9”, the IC50 came to 2.38 µM and the Emin came to 5.92%.
